One experiment concerns the target T1, Cathepsin K (Homo sapiens, UniProt P43235).
T1 sequence (P43235 115-329): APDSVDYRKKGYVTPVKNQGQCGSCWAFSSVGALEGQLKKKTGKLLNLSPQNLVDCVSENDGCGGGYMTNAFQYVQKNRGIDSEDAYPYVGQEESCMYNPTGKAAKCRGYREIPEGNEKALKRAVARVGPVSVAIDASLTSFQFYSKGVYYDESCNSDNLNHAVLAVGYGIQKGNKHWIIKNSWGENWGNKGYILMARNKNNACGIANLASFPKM
Put plainly: Cathepsin K inhibition assay (fluorogenic peptide substrate); selectivity ratio vs cathepsin S. In kind it is biochemical. To be noted: ratio of cathepsin K inhibition constant to cathepsin S inhibition constant; Table II. In a few lines:
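Fluorogenic kinetic assay, started with acetyl-Lys-His-Pro-Lys-aminocarbamoylcoumarin at 40 μM final, hydrolysis followed at ex 380/em 450 nm. Apparent inhibition constants from progress curves, converted to competitive inhibition constants. Selectivity expressed as isozyme inhibition constant divided by cathepsin S inhibition constant.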

In a further experiment the target is Cathepsin S (Homo sapiens, UniProt P25774). Put plainly: Cathepsin S inhibition assay (fluorogenic peptide substrate). The experiment is classed as biochemical. As to conditions: Table II, compounds of Formula I; read-out: Ki Cat. S. In short, it runs like this: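 Ki values come from nonlinear fitting of inhibited hydrolysis rates, taking free and total inhibitor concentrations as equal. Rates measured as rising fluorescence at 380/450 nm after reaction start with 50 μM final acetyl-HPVK-aminocarbamoylcoumarin.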
Sequence of Cathepsin S (P25774 115-331, species assumed): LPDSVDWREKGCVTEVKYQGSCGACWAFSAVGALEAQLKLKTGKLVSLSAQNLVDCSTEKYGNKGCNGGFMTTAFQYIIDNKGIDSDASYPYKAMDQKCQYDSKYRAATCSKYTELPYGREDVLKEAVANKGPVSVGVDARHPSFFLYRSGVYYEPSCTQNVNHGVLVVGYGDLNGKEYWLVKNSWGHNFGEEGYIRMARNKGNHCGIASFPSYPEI

Molecules are shown by their SMILES. Where only a bound is given, the exact number is not on record here.

For the compound `O=C(N[C@@H](CC1CCCCC1)C(=O)NCCNc1ccc(OC(F)(F)F)cc1)c1ccc(-c2cccc(C(F)(F)F)c2)o1` [Compound 246, (S)-5-(3-Trifluoromethyl-phenyl)-furan-2-carboxylic acid {2-cyclohexyl-1-[2-(4-trifluoromethoxy-phenylamino)-ethylcarbamoyl]-ethyl}-amide], on Cathepsin K, the “Selectivity for Cat. S over Cat. K” value is “++ (++, >100)”. At Cathepsin S, the inhibition constant (Ki) was less than 100 nM.

Consider `N#Cc1ccc(C(=O)N[C@@H](CC2CCCCC2)C(=O)NCCNc2ccc(F)cc2)cc1` [Compound 316, 4-Cyano-N-(S)-{2-cyclohexyl-1-[2-(4-fluoro-phenylamino)-ethylcarbamoyl]-ethyl}-benzamide], for which the “Selectivity for Cat. S over Cat. K” value on Cathepsin K is “++ (++, >100)”. The Ki on Cathepsin S is less than 100 nM.

As to `COc1ccc(NCCNC(=O)C(NC(=O)c2cccc(C)c2)c2ccc(OC)cc2OC)cc1` (centres unmarked) [Compound 225, N-{(2,4-Dimethoxy-phenyl)-[2-(4-methoxy-phenylamino)-ethylcarbamoyl]-methyl}-3-methyl-benzamide], at Cathepsin K, the “Selectivity for Cat. S over Cat. K” value was “+ (+, >10)”. The inhibition constant Ki on Cathepsin S was less than 10000 nM.

For the compound `COc1ccc(NCCNC(=O)[C@H](CC=Cc2ccccc2)NC(=O)c2cccc(C)c2)cc1` [Compound 208, (S)-N-{1-[2-(4-Methoxy-phenylamino)-ethylcarbamoyl]-4-phenyl-but-3-enyl}-3-methyl-benzamide], on Cathepsin K, the “Selectivity for Cat. S over Cat. K” value is “+++ (+++, >1000)”. Moreover, the Ki at Cathepsin S is less than 100 nM.

On to `COc1ccc(NCCNC(=O)[C@H](CC2CCCCC2)NC(=O)c2ccc(C)c(Br)c2)cc1` [Compound 112, (S)-3-Bromo-N-{2-cyclohexyl-1-[2-(4-methoxy-phenylamino)-ethylcarbamoyl]-ethyl}-4-methyl-benzamide], for which the “Selectivity for Cat. S over Cat. K” value on Cathepsin K was “++ (++, >100)”. Besides, the Ki at Cathepsin S was less than 100 nM.

As to `CS(=O)(=O)Nc1cccc(C(=O)N[C@@H](CC2CCCCC2)C(=O)NCCNc2ccc(F)cc2)c1` [Compound 84, N-(S)-{2-cyclohexyl-1-[2-(4-fluoro-phenylamino)-ethylcarbamoyl]-ethyl}-3-methanesulfonylamino-benzamide], the “Selectivity for Cat. S over Cat. K” value on Cathepsin K is “++ (++, >100)”. Further, the inhibition constant (Ki) on Cathepsin S is less than 100 nM.

For `O=C(Cc1ccc(C(F)(F)F)cc1)N[C@@H](CC1CCCCC1)C(=O)NCCNc1ccc(F)cc1` [Compound 325, 3-Cyclohexyl-N-[2-(4-fluoro-phenylamino)-ethyl]-2-(S)-[2-(4-trifluoromethyl-phenyl)-acetylamino]-propionamide], the “Selectivity for Cat. S over Cat. K” value on Cathepsin K is “++ (++, >100)”. Besides, the inhibition constant (Ki) at Cathepsin S was less than 100 nM.

With `COc1ccc(NCCNC(=O)[C@H](CC2CCCCC2)NC(=O)c2cccc(C(F)(F)F)c2)cc1` [Compound 106, (S)-N-{2-Cyclohexyl-1-[2-(4-methoxy-phenylamino)-ethylcarbamoyl]-ethyl}-3-trifluoromethyl-benzamide], the “Selectivity for Cat. S over Cat. K” value on Cathepsin K is given as “++ (++, >100)”. The Ki on Cathepsin S is less than 100 nM.

Regarding `COc1ccc(NCCNC(=O)[C@H](CC2CCCCC2)NC(=O)c2ccc(-c3cc(Cl)cc(Cl)c3)cc2)cc1` [Compound 171, (S)-3′, 5′-Dichloro-biphenyl-4-carboxylic acid {2-cyclohexyl-1-[2-(4-methoxy-phenylamino)-ethylcarbamoyl]-ethyl}-amide], the “Selectivity for Cat. S over Cat. K” value at Cathepsin K is “+++ (+++, >1000)”. Further, the Ki on Cathepsin S is less than 100 nM.

Consider `COc1ccc(NCCNC(=O)[C@H](CC2CCCCC2)NC(=O)c2cc(C)c(OC)c(C)c2)cc1` [Compound 111, (S)-N-{2-Cyclohexyl-1-[2-(4-methoxy-phenylamino)-ethylcarbamoyl]-ethyl}-4-methoxy-3,5-dimethyl-benzamide], for which the “Selectivity for Cat. S over Cat. K” value on Cathepsin K is recorded as “++ (++, >100)”. The Ki at Cathepsin S is less than 100 nM.

With `COc1ccc(NCCNC(=O)[C@H](Cc2ccccc2Cl)NC(=O)c2ccc(-c3cccc(C(F)(F)F)c3)o2)cc1` [Compound 2, N-((S)-1-(2-(4-methoxyphenylamino)ethylcarbamoyl)-2-(2-chlorophenyl)ethyl)-5-(3-(trifluoromethyl)phenyl)furan-2-carboxamide], the “Selectivity for Cat. S over Cat. K” value at Cathepsin K is listed as “+ (+, >10)”. Moreover, on Cathepsin S, the Ki was less than 100 nM.

Take `O=C(N[C@@H](CC1CCCCC1)C(=O)NCCNc1ccc(OC(F)(F)F)cc1)c1csc(-c2ccccc2)n1` [Compound 54, 2-Phenyl-thiazole-4-carboxylic acid (S)-{2-cyclohexyl-1-[2-(4-trifluoromethoxy-phenylamino)-ethylcarbamoyl]-ethyl}-amide]: the “Selectivity for Cat. S over Cat. K” value at Cathepsin K is on record as “+ (+, >10)”. Besides, the inhibition constant (Ki) at Cathepsin S was less than 100 nM.

Regarding `O=C(O)c1ccc(NCCNC(=O)[C@H](CC2CCCCC2)NC(=O)c2ccc(-c3cccc(C(F)(F)F)c3)o2)cc1` [Compound 11, 4-[2-(3-Cyclohexyl-2-(S)-{[5-(3-trifluoromethyl-phenyl)-furan-2-carbonyl]-amino}-propionylamino)-ethylamino]-benzoic acid], on Cathepsin K, the “Selectivity for Cat. S over Cat. K” value is given as “+ (+, >10)”. At Cathepsin S, the Ki was less than 100 nM.

On to `COc1ccc(NCCNC(=O)[C@H](CC2CCCCC2)NC(=O)c2cccc(-c3csc(C)n3)c2)cc1` [Compound 123, (S)-N-{2-Cyclohexyl-1-[2-(4-methoxy-phenylamino)-ethylcarbamoyl]-ethyl}-3-(2-methyl-thiazol-4-yl)-benzamide], for which the “Selectivity for Cat. S over Cat. K” value at Cathepsin K is given as “++ (++, >100)”. Also, on Cathepsin S, the Ki is less than 100 nM.

As to `COc1ccc(NCCNC(=O)[C@H](CC2CCCCC2)NC(=O)c2cc(C(F)(F)F)ccc2F)cc1` [Compound 154, (S)-N-{2-Cyclohexyl-1-[2-(4-methoxy-phenylamino)-ethylcarbamoyl]-ethyl}-2-fluoro-5-trifluoromethyl-benzamide], at Cathepsin K, the “Selectivity for Cat. S over Cat. K” value was “++ (++, >100)”. Also, at Cathepsin S, the Ki was less than 100 nM.

Turning to `COc1ccc(CC(=O)NC(CC2CCCCC2)C(=O)NCCNc2ccc(OC(F)(F)F)cc2)cc1` (centres unmarked) [Compound 17, 3-Cyclohexyl-2-[2-(4-methoxy-phenyl)-acetylamino]-N-[2-(4-trifluoromethoxy-phenylamino)-ethyl]-propionamide], the “Selectivity for Cat. S over Cat. K” value on Cathepsin K is listed as “++ (++, >100)”. Besides, the inhibitory constant (Ki) at Cathepsin S is less than 100 nM.

With `COc1ccc(NCCNC(=O)[C@H](Cc2cccc(Cl)c2)NC(=O)c2ccc(-c3cccc(C(F)(F)F)c3)o2)cc1` [Compound 3, N-((S)-1-(2-(4-methoxyphenylamino)ethylcarbamoyl)-2-(3-chlorophenyl)ethyl)-5-(3-(trifluoromethyl)phenyl)furan-2-carboxamide], the “Selectivity for Cat. S over Cat. K” value at Cathepsin K is reported as “+++ (+++, >1000)”. At Cathepsin S, the Ki was less than 100 nM.

Regarding `O=C(N[C@@H](CC1CCCCC1)C(=O)NCCNc1ccc(OC(F)(F)F)cc1)c1cccc(-c2ccccc2Cl)c1` [Compound 34, 2′-Chloro-biphenyl-3-carboxylic acid (S)-{2-cyclohexyl-1-[2-(4-trifluoromethoxy-phenylamino)-ethylcarbamoyl]-ethyl}-amide], the “Selectivity for Cat. S over Cat. K” value on Cathepsin K is “+++ (+++, >1000)”. At Cathepsin S, the inhibition constant (Ki) was less than 100 nM.

Regarding `COc1ccc(NCCNC(=O)[C@H](COCc2ccccc2)NC(=O)c2cccc(C)c2)cc1` [Compound 254, (S)-N-{2-Benzyloxy-1-[2-(4-methoxy-phenylamino)-ethylcarbamoyl]-ethyl}-3-methyl-benzamide], the “Selectivity for Cat. S over Cat. K” value on Cathepsin K is recorded as “++ (++, >100)”. Also, the Ki at Cathepsin S is less than 1000 nM.

`CC(=O)N1CCC(C(=O)N[C@@H](CC2CCCCC2)C(=O)NCCNc2ccc(F)cc2)CC1` [Compound 79, 1-Acetyl-piperidine-4-carboxylic acid (S)-{2-cyclohexyl-1-[2-(4-fluoro-phenylamino)-ethylcarbamoyl]-ethyl}-amide]: the “Selectivity for Cat. S over Cat. K” value at Cathepsin K is listed as “+ (+, >10)”. For the same compound, the inhibitory constant (Ki) at Cathepsin S is less than 10000 nM.

Consider `COc1ccc(NCCNC(=O)C(NC(=O)c2cccc(C)c2)C(C)c2ccccc2)cc1` (stereo not drawn) [Compound 268, threo-N-{1-[2-(4-Methoxy-phenylamino)-ethylcarbamoyl]-2-phenyl-propyl}-3-methyl-benzamide], for which, at Cathepsin K, the “Selectivity for Cat. S over Cat. K” value is “++ (++, >100)”. In addition, the Ki at Cathepsin S was less than 1000 nM.

For `COc1ccc(NCCNC(=O)[C@H](CCC2CCCCC2)NC(=O)c2ccc(N3CCOCC3)cc2)cc1` [Compound 127, (S)-N-{3-Cyclohexyl-1-[2-(4-methoxy-phenylamino)-ethylcarbamoyl]-propyl}-4-morpholin-4-yl-benzamide], the “Selectivity for Cat. S over Cat. K” value at Cathepsin K is given as “++ (++, >100)”. In addition, at Cathepsin S, the inhibitory constant (Ki) is less than 1000 nM.

As to `COc1ccc(NCCNC(=O)[C@H](CC2CCCCC2)NC(=O)c2cccc(C#N)c2)cc1` [Compound 120, (S)-3-Cyano-N-{2-cyclohexyl-1-[2-(4-methoxy-phenylamino)-ethylcarbamoyl]-ethyl}-benzamide], the “Selectivity for Cat. S over Cat. K” value at Cathepsin K is recorded as “++ (++, >100)”. Also, the inhibition constant Ki on Cathepsin S was less than 100 nM.

For `COc1ccc(NCCNC(=O)[C@H](CC2CCCCC2)NC(=O)c2cnn(-c3ccc(F)cc3)c2C)cc1` [Compound 161, (S)-1-(4-Fluoro-phenyl)-5-methyl-1H-pyrazole-4-carboxylic acid {2-cyclohexyl-1-[2-(4-methoxy-phenylamino)-ethylcarbamoyl]-ethyl}-amide], the “Selectivity for Cat. S over Cat. K” value at Cathepsin K was “++ (++, >100)”. Also, the Ki on Cathepsin S was less than 100 nM.

For `COc1ccc(NCCNC(=O)C(NC(=O)c2cccc(C)c2)c2ccc(Cl)cc2Cl)cc1` (centres unmarked) [Compound 222, N-{(2,4-Dichloro-phenyl)-[2-(4-methoxy-phenylamino)-ethylcarbamoyl]-methyl}-3-methyl-benzamide], the “Selectivity for Cat. S over Cat. K” value on Cathepsin K is on record as “+++ (+++, >1000)”. The Ki at Cathepsin S is less than 100 nM.

One may read the Ki as the dissociation constant of the complex between target and ligand, obtained from inhibition or displacement.
